Assay results taken from paper PMC5562545 (Journal of molecular biology, 2017).

Molecular target: WT PA channel (Bacillus anthracis, UniProt P13423)
Type: biochemical

WT PA channel, sequence (P13423 197-764 limits assumed): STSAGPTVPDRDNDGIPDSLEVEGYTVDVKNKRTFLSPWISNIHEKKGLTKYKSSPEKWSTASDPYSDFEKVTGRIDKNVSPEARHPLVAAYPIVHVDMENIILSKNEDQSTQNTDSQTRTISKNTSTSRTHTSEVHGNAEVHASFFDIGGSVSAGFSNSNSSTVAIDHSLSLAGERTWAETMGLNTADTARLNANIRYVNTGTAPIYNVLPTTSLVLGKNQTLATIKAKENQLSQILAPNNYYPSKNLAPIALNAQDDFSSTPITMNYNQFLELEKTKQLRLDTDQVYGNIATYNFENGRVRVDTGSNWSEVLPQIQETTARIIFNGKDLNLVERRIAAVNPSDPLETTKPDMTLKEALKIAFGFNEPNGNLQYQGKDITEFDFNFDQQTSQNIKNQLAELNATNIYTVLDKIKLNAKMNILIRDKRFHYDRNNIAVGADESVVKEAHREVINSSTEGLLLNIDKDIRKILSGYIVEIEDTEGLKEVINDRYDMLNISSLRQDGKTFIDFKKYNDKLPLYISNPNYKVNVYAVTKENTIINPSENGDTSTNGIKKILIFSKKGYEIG

With D-Trp the “dissociation to the cis side slower than L-Trp” value (pH 5.6) was ~ 20 fold, the “relative rate of dissociation to the cis side (in words)” value (pH 5.6) was “dissociated the slowest” and the “translocation slower than L-Trp” value (pH 5.6) was ~ 10 fold.

L-Trp was tested, and the “duration of the I2/B oscillation among guest–host peptides” value was “longest durations”, the “oscillation between conductance states during translocation” value was “exhibited an oscillation between the I2 and B” and the “relative rate of dissociation to the cis side (in words)” value (pH 5.6) was “dissociated the fastest”. For the same substance, the “translocation (in words)” value (pH 5.6) was “translocated the fastest”, the “translocation faster than D,L-Trp and D-Trp peptides” value (pH 5.6) was 10 fold and the “translocation faster than the HBS stapled peptide” value (pH 5.6) was ~ 100 fold.
